Reference: patent publication US8003602B2 (priority 2006, dated 2011)

Experiments:
Assay in all cases: MIC, Macro-broth dilution method
Assay type in all cases: cell-based
Enterococci KEM-VRE26 = tested on: Enterococci KEM-VRE26
Description: (§1) The in-vitro potency was established by minimum inhibitory concentration (MIC) determinations of the compound PM181104 against bacterial strains, by using the Macro-broth dilution method as per National Committee for Clinical Laboratory Standards (2000) guidelines [Journal of Anti-microbial Chemotherapy, 2002, 50, 125-128 (Cross Reference 8: Methods for Dilution Antimicrobial Susceptibility Tests for Bacteria that Grow Aerobically-Fifth Edition: Approved Standard M7-A5. NCCLS, Wayne, Pa., USA)]. Unless stated otherwise, Mueller-Hinton broth was used as nutrient medium for the assay. Linezolid (manufactured by Glenmark Pharma Ltd; Batch no: K2005028) was used as known standard in all in-vitro experiments. For preparation of the stock solution the compound PM181104 was dissolved in chloroform (5% of the total required volume) and diluted using methanol (95% of the total required volume).

E. coli SS = tested on: E. coli SS
Description: as §1

Pse. aeruginosa (M-35) = tested on: Pse. aeruginosa (M-35)
Description: as §1

Salmonella typhi Para A = tested on: Salmonella typhi Para A
Description: as §1

Enterococci KEM-VRE27 = tested on: Enterococci KEM-VRE27
Description: as §1

E. faecalis (FH-1) = tested on: E. faecalis (FH-1)
Description: as §1

Enterococci KEM-VRE28 = tested on: Enterococci KEM-VRE28
Description: as §1

Enterococci KEM-VRE29 = tested on: Enterococci KEM-VRE29
Description: as §1

[1] = tested on: Citrobacter diversus 2046 E
Description: as §1

[2] = tested on: Streptococcus equinus 02 D5 Gr1
Description: as §1

E. faecalis (uD.8b) = tested on: E. faecalis (uD.8b)
Description: as §1

[3] = tested on: Streptococcus durans 4939 (1) H
Description: as §1

Streptococcus durans = tested on: Streptococcus durans
Description: as §1

E. faecalis 4073H = tested on: E. faecalis 4073H
Description: as §1

Klebsiella pneumoniae = tested on: Klebsiella pneumoniae
Description: as §1

Streptococcus hirae 55 = tested on: Streptococcus hirae 55
Description: as §1

Measured: MIC

C=C(NC(=O)C(=C)NC(=O)C1CCCN1C(=O)c1nc(-c2ccc(-c3nc(C(=O)NC(=C)C(=O)NC(C)C(N)=O)cs3)c(-c3csc(C4Cc5nc(cs5)C(=O)NC(Cc5ccccc5)C5=NC(CS5)C(=O)NC(Cc5ccc(O)cc5)C(=O)N5CCCC5c5nc(cs5)C(=O)N4)n3)n2)oc1C)C(N)=O (stereo not shown) [PM181104]
7.81 ng/mL: Enterococci KEM-VRE26 | Enterococci KEM-VRE28 | [3] | Streptococcus durans | E. faecalis 4073H
3.91 ng/mL: Enterococci KEM-VRE27 | E. faecalis (FH-1) | Enterococci KEM-VRE29 | E. faecalis (uD.8b) | Streptococcus hirae 55
15.63 ng/mL: [2]
>1000 ng/mL: E. coli SS | Pse. aeruginosa (M-35) | Salmonella typhi Para A | [1] | Klebsiella pneumoniae
